Several values for one entry are separate records, joined by “and”; a condition that tells them apart may be missing. Equal values may be shown once.

The assay concerns the target T1, Bisphosphoglycerate mutase (Homo sapiens, UniProt P07738).
T1 sequence (P07738 whole entry): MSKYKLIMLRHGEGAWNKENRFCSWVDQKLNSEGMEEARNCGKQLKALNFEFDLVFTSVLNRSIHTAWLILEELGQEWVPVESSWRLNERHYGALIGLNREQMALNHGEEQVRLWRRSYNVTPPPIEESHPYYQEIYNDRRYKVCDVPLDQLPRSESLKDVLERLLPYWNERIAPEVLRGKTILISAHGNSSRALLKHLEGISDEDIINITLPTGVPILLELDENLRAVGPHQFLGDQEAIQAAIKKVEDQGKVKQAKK
Briefly: BPGM Synthase Assay. On the procedure:
To the assay plate was added Enzyme Solution (20 uL) to columns 2-22 and 24 of the assay plate. To columns 1 and 23 was added GAPDH Solution (20 uL). A separate compound plate was prepared at the desired concentrations and all wells were normalized with 5% DMSO. The compound plate was incubated for 30 minutes at RT. Next, the substrate solution (20 μL) was dispensed to all reaction wells and the plate was incubated for 60 minutes at RT. Koningic acid (1 μL) was added and the plate was incubated for 10 minutes at RT. […] Next, Resazurin Solution (10 μL) was added to all reaction wells and the plate was incubated for 30 minutes at RT.
On to `Cc1nc(COc2ccc(F)cn2)sc1-c1cccc(-c2ccc(C(=O)O)c(O)c2)c1` [US20230348450, Example 1], for which the IC50 (usually the concentration needed to halve the response being measured) was 1500 nM and 1000 nM.

For `Cc1nc(COc2ncccn2)sc1-c1cccc(-c2ccc(S(=O)(=O)CC(=O)O)cc2)n1` [US20230348450, Example 2], half-maximal inhibition (IC50) required 146 nM.

For `Cc1nc(COc2ncccn2)sc1-c1cccc(-c2cc(C(=O)O)cs2)n1` [US20230348450, Example 3], the IC50 is 260 nM and 180 nM.

Take `Cc1nc(COc2ccccn2)sc1-c1cccc(-c2ccc(C(=O)O)c(O)c2)c1` [US20230348450, Example 4]: the IC50 was 590 nM and 710 nM.

Consider `Cc1nc(COc2ncccn2)sc1-c1cccc(-c2ccc(C(=O)O)c(O)c2)n1` [US20230348450, Example 6], for which the IC50 was determined as 70 nM.

Take `Cc1nc(COCC(=O)N(C)C)sc1-c1csc(-c2cc(O)c(C(=O)O)cc2F)n1` [US20230348450, Example 7]: 60 nM corresponded to half-maximal inhibition (IC50).

`COC(=O)NCc1nc(C)c(-c2nsc(-c3cc(O)c(C(=O)O)cc3F)n2)s1` [US20230348450, Example 8] registered an IC50 of 95 nM.

In turn, `COC(=O)NCc1nc(C)c(-c2cccc(-c3ccc(C(=O)O)c(O)c3)n2)s1` [US20230348450, Example 9] came in with an IC50 of 317 nM.

`CC(=O)NCc1nc(C)c(-c2csc(-c3cc(O)c(C(=O)O)cc3F)n2)s1` [US20230348450, Example 10] had an IC50 of 95 nM.

On to `COC(=O)NCc1nc(C)c(-c2csc(-c3cc(O)c(C(=O)O)cc3F)n2)s1` [US20230348450, Example 209], for which the IC50 was 63 nM and 59 nM.

These data come from BindingDB's records for patent US20230348450 (Genzyme, 2023).
